# Data taken from patent US11891405B2, “Furo[3,4-b]pyrrole-containing BTK inhibitor” (CHIA TAI TIANQING PHARMACEUTICAL GROUP CO., LTD., priority 2018, dated 2024).
# How the values were obtained:
# TEC = molecular target: T1, TEC (Homo sapiens, UniProt P42680); assay: Screening for TEC inhibitory activity; format: biochemical
# T1 sequence (P42680 1-631): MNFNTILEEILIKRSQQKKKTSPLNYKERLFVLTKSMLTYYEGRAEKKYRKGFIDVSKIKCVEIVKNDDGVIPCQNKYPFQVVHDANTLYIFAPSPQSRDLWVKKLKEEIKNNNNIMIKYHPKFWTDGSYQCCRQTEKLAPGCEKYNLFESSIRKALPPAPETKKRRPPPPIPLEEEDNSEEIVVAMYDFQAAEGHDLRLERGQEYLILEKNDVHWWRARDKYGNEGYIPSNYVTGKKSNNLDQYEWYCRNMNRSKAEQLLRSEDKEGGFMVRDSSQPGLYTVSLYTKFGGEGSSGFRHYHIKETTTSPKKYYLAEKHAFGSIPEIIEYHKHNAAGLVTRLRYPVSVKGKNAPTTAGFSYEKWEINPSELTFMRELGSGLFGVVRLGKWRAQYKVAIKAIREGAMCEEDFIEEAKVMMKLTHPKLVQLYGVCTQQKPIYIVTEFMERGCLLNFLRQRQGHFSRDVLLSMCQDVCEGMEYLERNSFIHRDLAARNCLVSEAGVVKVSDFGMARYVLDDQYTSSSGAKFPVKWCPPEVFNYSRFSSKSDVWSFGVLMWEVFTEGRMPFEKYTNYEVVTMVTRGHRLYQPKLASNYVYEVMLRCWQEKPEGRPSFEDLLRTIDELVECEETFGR
# Description: 1.3 Screening for TEC Inhibitory Activity
# (§1) 50 ng/μL TEC stock solution was diluted with kinase buffer (50 mM HEPES, 10 mM MgCl2, 2 mM DTT, 1 mM EGTA, 0.01% Tween 20), and 6 μL of 1.67× working solution at 0.01336 g/μL (final concentration: 0.008 ng/μL) was added to each well. Different compounds dissolved in DMSO were added to the wells using a nanoliter pipettor, resulting in the final concentration of 1000 nM to 0.24 nM (4-fold gradient for 7 concentrations in total), and blank control wells (without enzyme) and negative control wells (with enzyme, plus vehicle DMSO) were set. After enzyme was reacted with the compound or vehicle for 30 min, 5×ATP at 50 μM (final concentration: 10 μM) prepared with kinase buffer was mixed with 5× substrate at 0.5 μM (final concentration: 0.1 μM, ULight-poly GT) at a ratio of 1:1, and the mixture was added to each well at 4 μL/well. After being sealed with a film, the plate was incubated at room temperature for 2 h, then 5 μL of 4×EDTA at 40 mM (final concentration: 10 mM) was added to each well. After the plate was incubated for 5 min at room temperature, 5 μL of 4× detection reagent at 8 nM (final concentration: 2 nM, Eu-anti-phospho-tyrosine antibody) was added to each well, followed by incubation at room temperature for 1 h. The plate was read using a PE Envision multi-functional microplate reader (excitation: 320 nm, emission: 665 nm), and IC50 was calculated by four-parameter fitting.
# ITK = molecular target: T2, ITK (Homo sapiens, UniProt Q08881); assay: Screening for ITK inhibition activity; format: biochemical
# T2 sequence (Q08881 1-620): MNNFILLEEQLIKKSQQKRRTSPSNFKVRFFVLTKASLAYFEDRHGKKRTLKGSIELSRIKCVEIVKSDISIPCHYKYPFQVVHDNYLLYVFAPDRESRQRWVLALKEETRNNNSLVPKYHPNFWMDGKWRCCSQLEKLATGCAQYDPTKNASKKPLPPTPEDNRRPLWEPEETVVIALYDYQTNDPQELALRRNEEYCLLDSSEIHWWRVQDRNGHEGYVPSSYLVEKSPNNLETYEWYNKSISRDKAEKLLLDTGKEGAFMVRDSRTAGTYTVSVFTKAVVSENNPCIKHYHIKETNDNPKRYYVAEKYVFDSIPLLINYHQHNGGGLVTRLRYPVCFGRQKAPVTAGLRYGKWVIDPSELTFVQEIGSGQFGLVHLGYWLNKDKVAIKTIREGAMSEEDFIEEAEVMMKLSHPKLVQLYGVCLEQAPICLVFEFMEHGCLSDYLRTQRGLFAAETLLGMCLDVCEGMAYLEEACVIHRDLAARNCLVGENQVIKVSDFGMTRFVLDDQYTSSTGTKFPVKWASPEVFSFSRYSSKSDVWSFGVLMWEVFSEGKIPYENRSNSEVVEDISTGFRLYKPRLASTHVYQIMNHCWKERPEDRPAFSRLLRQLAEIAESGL
# Description: 1.4 Screening for ITK ([…]) Inhibition Activity
# as §1, with “ITK” for “TEC”, “[…]” for “0.01336”, “0.05ng/μL)” for “0.008 ng/μL)”, “4×detection” for “4× detection”
# [1] = Mouse liver microsome metabolic stability; format: in vitro ADME; conditions: mouse liver microsomes
# Description: 3.2 Mouse Liver Microsome Assay
# 300 μL of final incubation system: 30 μL of mouse liver microsomes (protein concentration: 5 mg/mL, XENOTECH, USA), 30 μL of NADPH (10 mM)+MgCl2 (5 mM), 3 μL of the substrate, i.e., the example compound (dissolved in 50% aqueous acetonitrile solution, 100 μM), and 237 μL of PBS buffer, wherein the proportion of the organic solvent (acetonitrile) was 0.5%. Each tube was added with 270 μL of a mixed solution of substrate and enzyme, and after being pre-incubated at 37° C. for 5 min, added with 30 μL of NADPH+MgCl2. Then 50 μL of the mixture was taken at 0 min, 15 min, 30 min and 60 min, and added with 300 μL of diazepam glacial acetonitrile (20 ng/mL) containing an internal standard to quench the reaction. The reaction mixture was vortexed for 5 min, and centrifuged (13,000 rpm, 4° C.) for 10 min. 100 μL of supernatant was pipetted into a sample vial, from which 1 μL of supernatant was injected and analyzed by LC-MS/MS, and the residual percentage was calculated.
IC50 (TEC),IC50 (ITK),Mouse (MLM) Remaining % (T = 60 min) [1],SMILES
155 nM,> 1000 nM,90%,"CC#CC(=O)N1[C@@H]2COC[C@@H]2C[C@H]1c1nc(-c2ccc(C(=O)Nc3ccccn3)cc2)c2c(N)nccn12 [Compound I-1, 4-(8-amino-3-((2S,3aR,6aS)-1-(but-2-ynoyl)hexahydro-1H-furo[3,4-b]pyrrol-2-yl)imidazo [1,5-a]pyrazin-1-yl)-N-(pyridin-2-yl)benzamide]"
111 nM,> 1000 nM,89%,"C=CC(=O)N1[C@@H]2COC[C@@H]2C[C@H]1c1nc(-c2ccc(C(=O)Nc3ccccn3)cc2)c2c(N)nccn12 [Compound I-3, 4-(3-((2S,3AR,6AS)-1-ACRYLOYLHEXAHYDRO-1H-FURO[3,4-B]PYRROL-2-YL)-8-AMINOIMIDAZO [1,5-A]PYRAZIN-1-YL)-N-(PYRIDIN-2-YL)BENZAMIDE]"
25 nM,> 1000 nM,32%,"CC#CC(=O)N1[C@@H]2COC[C@@H]2C[C@H]1c1nc(-c2ccc(C(=O)Nc3cc(C(F)(F)F)ccn3)cc2F)c2c(N)nccn12 [Compound I-4, 4-(8-AMINO-3-((2S,3AR,6AS)-1-(BUT-2-YNOYL)HEXAHYDRO-1H-FURO[3,4-B]PYRROL-2-YL)IMIDAZO[1,5-A]PYRAZIN-1-YL)-3-FLUORO-N-(4-(TRIFLUOROMETHYL)PYRIDIN-2-YL)BENZAMIDE]"
–,> 1000 nM,55.7%,"Nc1nccn2c([C@@H]3C[C@H]4COC[C@H]4N3C(=O)C3CC3)nc(-c3ccc(C(=O)Nc4cc(C(F)(F)F)ccn4)cc3F)c12 [Compound I-7, 4-(8-AMINO-3-((2S,3AR,6AS)-1-(CYCLOPROPANECARBONYL)HEXAHYDRO-1H-FURO[3,4-B]PYRROL-2-YL)IMIDAZO[1,5-A]PYRAZIN-1-YL)-3-FLUORO-N-(4-(TRIFLUOROMETHYL)PYRIDIN-2-YL)BENZAMIDE]"
